Publication PMC12613848, “First in human phase 1 study of DT2216, a selective BCL-xL degrader, in patients with relapsed/refractory solid malignancies” (Journal of Hematology & Oncology, 2025)
Several values for one entry are separate records, joined by “and”; a condition that tells them apart may be missing. Equal values may be shown once. Entries after “also recorded” stand apart in the source; their conditions may differ.

Experiments:
Myla cells (CTCL) = assay: In vitro IC90, Myla cells; assay type: cell-based
Protocol: Fig. 7 Mean Plasma concentration of DT2216 in 4 patients infused with DT2216 at 0.4 mg/kg over time against in vitro inhibitory concentration 90%(IC90) for various cell lines. SCLC – small cell lung cancer; OC- ovarian carcinoma; T-ALL – T cell acute lymphoblastic leukemia, CTCL – Cutaneous T cell lymphoma TEXT PRINTED IN THE PICTURE: DT2216: IC90 (≈ 1000 nM) for H146 cells (SCLC); IC90 (< 1000 nM) for OVCAR4 cells (OC); IC90 (≈ 500 nM) for MOLT-4 cells (T-ALL); IC90 (< 100 nM) for OVCAR4 cells (OC)* (*In combination with Carboplatin); IC90 (≈ 100 nM) for H146 cells (SCLC)** (**In combination with SN-38/irinotecan); IC90 (30 nM) for Myla cells (CTCL)

VHL = molecular target: T1, VHL (Homo sapiens, UniProt P40337); assay: VHL expression in peripheral white blood cells of patients; assay type: in vivo; conditions: 0.4 mg/kg IV, 4 patients, after C1D1
T1 construct: assessment of BCL-XL and VHL levels in peripheral white blood cells (WBC); endogenous in cells; host or cells: peripheral white blood cells of trial patients
T1 sequence (P40337 whole entry): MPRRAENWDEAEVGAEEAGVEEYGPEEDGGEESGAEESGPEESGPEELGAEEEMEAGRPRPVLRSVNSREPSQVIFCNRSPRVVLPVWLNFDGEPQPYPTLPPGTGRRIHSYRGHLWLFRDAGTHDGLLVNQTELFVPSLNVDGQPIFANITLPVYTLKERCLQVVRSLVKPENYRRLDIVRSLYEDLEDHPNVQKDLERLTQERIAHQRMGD
Protocol: (§1) Premedication prior to each infusion was at the discretion of the investigator or according to institutional guidelines. Patient assessment and follow-up procedures can be found in the schedule of assessments in this study. The clinical response was evaluated using RECIST v1.1 per protocol. Blood samples were collected for PK analysis before and after post-infusion at defined intervals, along with platelet counts. Exploratory biomarkers include (but are not limited to) the assessment of BCL-XL and VHL levels in peripheral white blood cells (WBC).
Fig. 6 Changes in BCL-XL and VHL expression after infusion of DT2216 at 0.4 mg/kg in 4 patients. […] Right panel depicts fold changes in VHL expression in the same patients after infusion of DT2216.

[1] = Safety and tolerability in patients (adverse events CTCAE v5.0, DLT, platelet count, RP2D); assay type: in vivo, human
Protocol: Dose escalation consisted of the administration of DT2216 intravenously twice weekly at several different doses outlined in protocol attached. The starting dose was 0.04 mg/kg, established based on pre-clinical toxicity studies. Safety was evaluated using CTCAE version 5.0. The initial three dose levels enrolled one patient, following which for dose level 4 and 5, a 3 + 3 design was utilized following a 100% incremental dose increase for dose levels 2 to 5 until the first dose limiting toxicity (DLT) in cycle 1 was observed. Thereafter, a modified Fibonacci sequence was used to define dose escalation increments until the maximum tolerated dose (MTD) was reached as described in protocol. If no dose-limiting toxicity (DLT) was observed during the DLT monitoring period of first 28 days, the next patient was enrolled at the next higher dose level. Dose-limiting toxicities (DLTs) during the first treatment cycle were defined as any Grade 5 toxicity; Grade 4 neutropenia lasting > 7 days; febrile neutropenia; Grade 4 thrombocytopenia or Grade 3 thrombocytopenia with clinically significant hemorrhage or lasting ≥ 7 days; and Grade ≥ 3 non-hematologic toxicities, excluding nausea, vomiting, or diarrhea lasting ≤ 3 days or transient laboratory abnormalities resolving within 72 h. Hepatotoxicity meeting Hy’s law criteria was also considered a DLT. Transient Grade 3–4 electrolyte abnormalities resolving to ≤ Grade 2 within 72 h were not considered DLTs.
Patients were allowed a maximum of two intra-patient dose escalations. Patients received DT2216 by intravenous infusion on days 1 and 4 weekly for at least 4 weeks, with each cycle consisting of a 28-day cycle for a maximum duration of 1 year until disease progression, unacceptable toxicity, or other withdrawal criteria, as listed in the protocol. The extent of disease was evaluated using imaging studies and disease-appropriate tumor markers every 8 weeks from day 1 of the first cycle. RP2D was established based on MTD as well as other relevant data, including clinical signals of activity, PK, and PD data.
as §1

[2] = number of subjects, 20 patients, all dose cohorts
[3] = related TEAE, 20 patients, all dose cohorts

Which results are given for Cc1ncsc1-c1ccc([C@H](C)NC(=O)[C@@H]2C[C@@H](O)CN2C(=O)[C@@H](NC(=O)CCCCCC(=O)N2CCN(CC[C@H](CSc3ccccc3)Nc3ccc(S(=O)(=O)NC(=O)c4ccc(N5CCN(CC6=C(c7ccc(Cl)cc7)CCC(C)(C)C6)CC5)cc4)cc3S(=O)(=O)C(F)(F)F)CC2)C(C)(C)C)cc1 [DT2216]?
IC90 (Myla cells (CTCL)): 30 nM; VHL expression in peripheral WBCs (VHL): did not demonstrate a simultaneous drop; fatigue, related TEAE ([1]; 2 patients of 20): 10%; infusion-related reaction, related TEAE ([1]; 2 patients of 20): 10%; thrombocytopenia, related TEAE ([1]; 9 patients of 20): 45%; bleeding events and treatment related deaths ([1]; 20 patients): no episodes of bleeding or treatment emergent adverse events leading to death; also recorded: no major bleeding events or treatment related deaths; Treatment discontinuation: Adverse event (subjects) ([1]; Cohort 1 (0.04 mg/kg), 1 treated): 0; Treatment discontinuation: Adverse event (subjects) ([1]; Cohort 2 (0.08 mg/kg), 1 treated): 0; Treatment discontinuation: Adverse event (subjects) ([1]; Cohort 3 (0.12 mg/kg), 1 treated): 0; Treatment discontinuation: Adverse event (subjects) ([1]; Cohort 4 (0.24 mg/kg), 7 treated): 0; Treatment discontinuation: Adverse event (subjects) ([1]; Cohort 5 (0.32 mg/kg), 6 treated): 0; Treatment discontinuation: Adverse event (subjects) ([1]; Cohort 6 (0.40 mg/kg), 4 treated): 0; patients with at least one related treatment-emergent adverse event (TEAE) ([1]; Sixteen of 20 patients): 80%; Treatment discontinuation: Adverse event (subjects) ([1]; Total, 20 treated): 0; time to platelet count recovery to > 50,000 ([1]; all cases): ≤ 4 days; time to platelet count recovery to > 75,000 ([1]; all cases): ≤ 1 week; number of dose-limiting toxicities (grade 4 thrombocytopenia) ([1]; dose escalation 0.04 to 0.4 mg/kg IV BIW, DLT at 0.32 mg/kg): one; lowest platelet count observed during the study ([1]; human, in vivo): 24,000 /µL; median duration of dose interruption due to thrombocytopenia ([1]; human, in vivo): 5 days; time to resolution of the grade 4 thrombocytopenia DLT ([1]; human, in vivo): ≤ 48 h; Alanine aminotransferase increased, Grade > 3 [1, 2]: 0; Blood bilirubin increased, Grade > 3 [1, 2]: 0; Contusion, Grade > 3 [1, 2]: 0; Decreased appetite, Grade > 3 [1, 2]: 0; Fatigue, Grade > 3 [1, 2]: 0; Hematuria, Grade > 3 [1, 2]: 0; Infusion related reaction, Grade > 3 [1, 2]: 0; Lipase increased, Grade > 3 [1, 2]: 0; Temperature intolerance, Grade > 3 [1, 2]: 0; Thrombocytopenia, Grade > 3 [1, 2]: 1; patients with dose interruption due to thrombocytopenia ([1]; of 20 patients): 8 patients; patients with dose reduction due to thrombocytopenia ([1]; of 20 patients): 2 patients and 1 patients; need for platelet transfusions ([1]; patients with thrombocytopenia): none of the patients required platelet transfusions; Alanine aminotransferase increased, Number of subjects (%) [1, 3]: 1 (5) subjects (%); Blood bilirubin increased, Number of subjects (%) [1, 3]: 1 (5) subjects (%); Contusion, Number of subjects (%) [1, 3]: 1 (5) subjects (%); Decreased appetite, Number of subjects (%) [1, 3]: 1 (5) subjects (%); Fatigue, Number of subjects (%) [1, 3]: 2 (10) subjects (%); Hematuria, Number of subjects (%) [1, 3]: 1 (5) subjects (%); Infusion related reaction, Number of subjects (%) [1, 3]: 2 (10) subjects (%); Lipase increased, Number of subjects (%) [1, 3]: 1 (5) subjects (%); Temperature intolerance, Number of subjects (%) [1, 3]: 1 (5) subjects (%); Thrombocytopenia, Number of subjects (%) [1, 3]: 9 (45) subjects (%)
